Reference: paper PMC9772221 (Archives of biochemistry and biophysics, 2022)
Where two headings read alike, the source gives them in different places. Values belong to the compound of their own block, whether it stands above or below them.

How the values were obtained:
PYCR1 [1] = conditions: read-out: Ki against PYCR1; cited from earlier work
PYCR3 [2] = biological target: T1, PYCR3 (Homo sapiens, UniProt Q53H96); assay: Single-point inhibition screen of proline analogs against PYCR3; assay type: biochemical; conditions: proline analog 5 mM, L-P5C 200 μM, NADH 175 μM
T1 sequence (Q53H96 11-274): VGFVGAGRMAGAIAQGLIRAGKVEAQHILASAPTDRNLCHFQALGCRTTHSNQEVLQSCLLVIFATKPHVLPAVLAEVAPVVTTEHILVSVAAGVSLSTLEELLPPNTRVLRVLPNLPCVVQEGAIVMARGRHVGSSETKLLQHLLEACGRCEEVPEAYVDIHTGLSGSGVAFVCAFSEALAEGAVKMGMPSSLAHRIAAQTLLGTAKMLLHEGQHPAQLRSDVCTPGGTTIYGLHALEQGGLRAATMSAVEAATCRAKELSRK

PYCR3 [3] = biological target: T1, PYCR3; assay: Competitive; assay type: biochemical; conditions: pH 7.5, 26°C, NADH fixed at 175 μM
PYCR3 [4] = conditions: read-out: Ki of L-proline against PYCR3, previous estimate; cited from earlier work
PYCR3 [5] = biological target: T1, PYCR3; assay: Bi-substrate kinetic analysis of PYCR3, global fitting to bi bi models; assay type: biochemical; conditions: read-out: K^P5C, L-P5C on abscissa, L-P5C binds first, pH 7.5, 26°C
PYCR1 [6] = conditions: PYCR1, variable L-P5C, NADH = 175 μM; cited from earlier work
PYCR3 [7] = biological target: T1, PYCR3; assay: Steady-state; assay type: biochemical; conditions: pH 7.5, 26°C
[8] = PYCR3, variable L-P5C, NADH = 175 μM
[9] = PYCR3, variable L-P5C, NADPH = 175 μM
[10] = PYCR3, variable coenzyme, L-P5C = 400 μM

SMILES: O=CN1CCC[C@H]1C(=O)O [Compound 2, N-formyl-L-proline]
Ki (PYCR1 [1]): 100 µM
catalytic activity compared to the control assay with no inhibitor (PYCR3 [2]): ≤ 50%
Ki (PYCR3 [3]; read-out: Ki, apparent competitive (with L-P5C) inhibition constant): 1200 ± 100 µM

SMILES: O=C(O)[C@@H]1CCCN1 [Compound 17, L-proline]
Ki (PYCR3 [4]): ~8000 µM
Ki (PYCR3 [3]; Ki, apparent competitive (with L-P5C) inhibition constant): 5700 ± 600 µM

SMILES: O=C(O)C1CCC=N1 [L-P5C, Δ^1-pyrroline-5-carboxylate]
Kd (PYCR3 [5]; equilibrium compulsory ordered bi bi (Equation 2)): 1500 ± 700 µM
Kd (PYCR3 [5]; steady-state compulsory ordered bi bi (Equation 3)): 110 ± 70 µM
Km (PYCR1 [6]): 260 ± 63 µM
kcat (PYCR1 [6]): 51 ± 13 s⁻¹
Km (PYCR3 [7]; [8]): 315 ± 65 µM
kcat (PYCR3 [7]; [8]): 146 ± 17 s⁻¹
Km (PYCR3 [7]; [9]): 64 ± 48 µM
kcat (PYCR3 [7]; [9]): 48 ± 11 s⁻¹

Km (PYCR3 [7]; [10]): 192 ± 8 µM
kcat (PYCR3 [7]; [10]): 235 ± 5 s⁻¹
SMILES: NC(=O)C1=CN([C@@H]2O[C@H](COP(=O)(O)OP(=O)(O)OC[C@H]3O[C@@H](n4cnc5c(N)ncnc54)[C@H](O)[C@@H]3O)[C@@H](O)[C@H]2O)C=CC1 [NADH]

Km (PYCR3 [7]; [10]): 45 ± 3 µM
kcat (PYCR3 [7]; [10]): 70 ± 2 s⁻¹
SMILES: NC(=O)C1=CN([C@@H]2O[C@H](COP(=O)(O)OP(=O)(O)OC[C@H]3O[C@@H](n4cnc5c(N)ncnc54)[C@H](OP(=O)(O)O)[C@@H]3O)[C@@H](O)[C@H]2O)C=CC1 [NADPH]
